Assay results from ChEMBL document CHEMBL1159210, “The arenarans, sesquiterpene ethers from the marine sponge Dysidea arenaria” (J Nat Prod, 1995).
Converted amounts (≈) assume the structure as drawn. The source made the active and inactive calls. The rule behind the calls is not given here.

Columns and labels:
Type in all cases: functional, cell-based
[1] = tested on: HT-29; test: Cytotoxicity against human HT-29 cells
[2] = tested on: HCT-29; test: Cytotoxicity against human HCT29 cells
[3] = tested on: P388; test: Cytotoxicity against mouse P388 cells
[4] = tested on: A549; test: Cytotoxicity against human A549 cells

Row | SMILES | Activity [1] | Activity [2] | Activity [3] | Activity [4] | IC50 [1] | IC50 [2] | IC50 [3] | IC50 [4]
1 | CC1(C)CCC[C@]2(C)OC[C@H]3O[C@@]3(C)CC[C@@H]12 | inactive | inactive | inactive | inactive | – | – | – | –
2 | C/C1=C/CO[C@@]2(C)CCCC(C)(C)[C@@H]2CC1 [ARENARAN A] | – | – | – | – | 9.11 µg/mL (≈ 41 µM) | 5.28 µg/mL (≈ 23.7 µM) | 3.17 µg/mL (≈ 14.3 µM) | 9.51 µg/mL (≈ 42.8 µM)
